Measurements taken from publication PMC10115881, “Disrupting the α-synuclein-ESCRT interaction with a peptide inhibitor mitigates neurodegeneration in preclinical models of Parkinson’s disease” (Nature Communications, 2023).
No end group written: not given here. *: point of attachment. FITC = O=C1OC2(c3ccc(O)cc3Oc3cc(O)ccc32)c2ccc(NC(=S)*)cc21

Legend:
[1] = test system: WT a-syn oligomers; assay: Luciferase PCA of WT a-syn oligomers; format: cell-based, human; settings: for Oligomers %: WT oligomers, luciferase activity; for Effect on WT a-syn oligomers: luciferase PCA
Description: (§1) Oligonucleotides encoding the specific peptides were synthesized and individually cloned into the pLJM1 nGFP lentiviral vector. HEK293T cells were infected with individual constructs, and cell viability was assessed using Cell Titer-Glo luminescent assay (Promega) at 72 h post infection.
(§2) Tet-off HEK293 cells stably expressing split luciferase-a-syn constructs and tet-off parent HEK293 cell lines were maintained in DMEM supplemented with 10% FBS and 1% pen/strep/glutamine. […] Cells were trypsinized from subconfluent culture and seeded in a 96-well plate at a density of 15,000 cells per well. Cells were incubated overnight at 37 °C in 5% CO2. Cells were transfected with GFP-peptide plasmids. After 6 h of incubation, 20 µL of cell medium was transferred to a black flat-bottomed 96-well plate. Fifty microliters of Working solution (Pierce Gaussia-Firefly Luciferase Dual Assay Kit, Thermo Scientific, 16181) were added into each well containing cell medium. Immediately after adding the reagent, samples were read using a luminometer with a 480 nm filter.

[2] = test system: A53T a-syn expressing HEK293 cells; assay: Cell Titer-Glo cell viability, A53T a-syn expressing cells; format: cell-based, human; settings: for cell viability effect of peptides: A53T a-syn, Supp Figure 1A; for Cell viability: A53T, MG132 10 μM, 72 h; for Effect of MIM motif peptides on cell viability in A53T a-syn expressing cells: Supp Figure 1H
Description: as §1
(§3) Cells were trypsinized from subconfluent cultures as described earlier, suspended in culture media, and then seeded into triplicate wells of a 96-well plate (100 µl/well) at a density of 1.5 × 10^4 cells per well with standard culture conditions of 5% CO2 at 37 °C. Cells were infected with lentivirus expressing peptide at a MOI of 5 for 72 h or transfected with plasmid for 72 h. Cell Titer-Glo reagent was added to each well (30 µL), according to the manufacturer’s protocol and […].

[3] = test system: WT a-syn expressing HEK293 cells; assay: Cell Titer-Glo cell viability, WT a-syn expressing cells; format: cell-based, human; settings: WT alpha-synuclein; for Cell viability: MG132 10 μM, 72 h; for cell viability effect of peptides: Supp Figure 1A;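 for cell viability effect of peptides: measured without MG132 proteasome inhibitor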
Description: as §1, §3

[4] = test system: Parent HEK293 cells; assay: Cell Titer-Glo cell viability, parent cells; format: cell-based, human; settings: for Cell viability: MG132 10 μM, 72 h; for cell viability effect of peptides: Supp Figure 1A;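 for cell viability effect of peptides: measured without MG132 proteasome inhibitor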
Description: as §1, §3

[5] = test system: A53T a-syn oligomers; assay: Luciferase PCA of A53T a-syn oligomers; format: cell-based, human; settings: for Effect on A53T a-syn oligomers: luciferase PCA, n=3
Description: as §1, §2

[6] = test system: PDE dopaminergic neurons of A30P a-syn C. elegans; assay: C. elegans PDE neurite length assay; format: in vivo
Description: C. elegans strains were grown and maintained under standard conditions at 22–23 °C [66]. BZ555 [dat-1p::gfp] was obtained from the C. elegans Genetics Center (CGC; University of Minnesota, St Paul, MN, USA), TWH1 ([dat-1p::a-syn(A30P), ges-1p::DsRed]; [dat-1p::gfp]) was obtained by crossing BZ555 with A30P a-syn transgenic animals (kindly provided by Dr. Takeshi Iwatsubo, University of Tokyo)[67].
The peptide construct (pPD97.78_osm-6p_TagRFP_wpeptide) was obtained by subcloning the following fragments into NheI and SpeI sites of pPD97.78 (A. Fire): NheI-AgeI […] fragment (2.4 kb) obtained by PCR using primer set 5′-[…]-3′ and 5′-[…]-3′ and N2 genomic DNA as a template, AgeI-EcoRI TagRFP fragment obtained by PCR using primer set 5′-gttgaccggt[…]-3′ and 5′-ggcagaattcga[…]-3′, EcoRI-SmaI peptide ([…]) fragment digested from CMV_[…]_worm, SmaI-SpeI unc-54 3′-UTR fragment digested from pPD95.75 (Fire vector). The TagRFP control construct was obtained by replacing the EcoRI-SmaI peptide fragment and SmaI-SpeI unc-54 3′-UTR fragment from pPD97.78_osm-6p_TagRFP_wpeptide, to EcoRI- SpeI unc-54 3′-UTR fragment digested from pPD95.75[68].
Each plasmid (40 ng/µl) was injected with a co-injection marker, sur-5p::mCherry into TWH1. The animals carrying the extrachromosomal arrays were transferred to new plates, and their progenies were analyzed at the adult stage under a widefield microscope (Zeiss AxioObserver). Pearson Chi-square test was used for statistical analysis.

[7] = test system: LC3-HiBiT reporter in HEK293 cells; assay: Autophagy flux assay (LC3-HiBiT reporter), HEK293 cells; format: cell-based, human
Text: Autophagic flux was quantitatively measured with the Autophagy LC3-HiBiT Reporter Assay System which was purchased from Promega (GA1040) and used according to the manufacturer’s instructions. When autophagy is induced, the cytosolic LC3-I fusion protein is recruited to phagophores where it becomes conjugated to phosphatidylethanolamine to form LC3-II. Upon phagophore membrane elongation and closure to form the mature autophagosome, a significant fraction of tethered LC3 protein becomes captured within the lumen together with various cargo. Subsequently, autophagosomes fuse with lysosomes to form autolysosomes, leading to the ultimate degradation of both cargo and the captured LC3 reporter protein. Thus, changes in the total level of the LC3 reporter protein can be used to monitor changes in autophagic flux. HEK293 cells (ATCC, CRL-1573) stably expressing the LC3-HiBiT reporter were trypsinized from subconfluent culture and seeded in a 10 cm plate at a density of 3.0 × 10^6 per plate. Cells were incubated overnight at 37 °C in 5% CO2. Cells were transfected with FLAG-peptide plasmids in combination with pcDNA or A53T a-syn plasmids. After 24 h, cells were trypsinized and seeded in triplicate in a white flat-bottomed 96-well plate at a density of 20,000 cells per well. Cell medium was replaced the next day with fresh medium containing DMSO, Rapamycin, or Bafilomycin A1 and incubated for 24 h at 37 °C with 5% CO2. 80 µL of Working prewarmed Nano-Glo® HiBiT lytic buffer containing HiBiT substrate and LgBit protein (N3030) were added to each well containing 20 µL of cell medium and left to incubate on a rocker for 10 min. Samples were read using a luminometer with a 480 nm filter with measured RLU being directly proportional to HiBiT-conjugated LC3.

[8] = test system: A53T a-syn; assay: A53T a-syn protein level in HEK293 cells by immunoblot; format: cell-based, human
Description: Infected or transfected cells were scraped from six-well dishes and lysed with lysis buffer (50 mM Tris-HCl pH 7.4, 1% Nonidet P-40, 150 mM NaCl, 1 mM EDTA, 1× protease inhibitor mixture (Sigma)) for 30 min at 4 °C. The insoluble pellet was removed following a 10,000 rpm spin for 5 min at 4 °C. Lysates were analyzed by SDS-PAGE/immunoblot using 4–20% Mini-PROTEAN Tris-glycine gels (Bio-Rad), transferred to polyvinylidene fluoride (PVDF) membranes, and blocked in 5% milk containing PBS-Tween-20 (0.1%) for 1 h. PVDF membranes were then incubated with specified primary antibodies followed by incubation with horseradish peroxidase-conjugated secondary antibodies (anti-mouse HRP-linked, Cell Signaling, catalog #7076, 1:5000; anti-rabbit HRP-linked, Cell Signaling, catalog #7074, 1:5000) and detected using enhanced chemiluminescence (GE Healthcare). Anti-a-syn antibody (clone 42) was obtained from BD Biosciences (catalog #610787, 1:1000). Anti-LAMP1 antibody was obtained from Abcam (catalog #ab24170, 1:500). Anti-beta-actin antibody was obtained from Cell Signaling (13E5) (catalog #4970, 1:1000). Anti-CD63 antibody was obtained from R&D Systems (catalog #MAB50482-SP, 1:1000).

[9] = target: T1, purified recombinant CHMP2B (UniProt Q9UQN3 1-213); assay: fluorescence polarisation; FITC-peptide constant at 50 nM, CHMP2B serially diluted 1:1 from 30 μM; 50 mM Na phosphate pH 5.5 or 20 mM Na acetate pH 5.5, 0.5 mM TCEP, 0.005% Triton-X-100; 30 min at room temperature; settings: both partners purified
T1 construct: CHMP2B from the vector pET-DEST42 CHMP2B; eluted as a 26 kDa monomer; Removal of tags is not described; source: E. coli Overexpress C41, inclusion bodies, purified (Ni-NTA in guanidine HCl, dialysis, SEC)
T1 sequence (Q9UQN3 whole entry): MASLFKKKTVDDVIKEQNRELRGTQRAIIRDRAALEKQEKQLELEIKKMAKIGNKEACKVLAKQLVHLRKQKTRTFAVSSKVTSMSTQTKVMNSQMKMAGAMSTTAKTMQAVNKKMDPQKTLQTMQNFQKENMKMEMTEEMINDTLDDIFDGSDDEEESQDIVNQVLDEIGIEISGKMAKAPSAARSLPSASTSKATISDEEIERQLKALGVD

EIERQLKALG [PDpep1.2]
Oligomers % ([1]; column 1): 104.991%
Oligomers % ([1]; column 2): 81.7556%
Oligomers % ([1]; column 3): 72.2892%
Oligomers % ([1]; column 4): 74.8709%
Oligomers % ([1]; column 5): 62.3924%
Effect on WT a-syn oligomers [1]: significant reduction in a-syn oligomers
cell viability effect of peptides ([2]; replicate 1): 14600
cell viability effect of peptides ([2]; replicate 2): 15600
cell viability effect of peptides ([2]; replicate 3): 14800
Cell viability ([2]; replicate 1): 7500
Cell viability ([2]; replicate 2): 6200
Cell viability ([2]; replicate 3): 6500
Effect of MIM motif peptides on cell viability in A53T a-syn expressing cells ([2]; replicate 1): 6674
Effect of MIM motif peptides on cell viability in A53T a-syn expressing cells ([2]; replicate 2): 6850
Effect of MIM motif peptides on cell viability in A53T a-syn expressing cells ([2]; replicate 3): 6527
Cell viability ([3]; replicate 1): 4000
Cell viability ([3]; replicate 2): 4200
Cell viability ([3]; replicate 3): 4500
cell viability effect of peptides ([3]; replicate 1): 13200
cell viability effect of peptides ([3]; replicate 2): 13400
cell viability effect of peptides ([3]; replicate 3): 13100
Cell viability ([4]; replicate 1): 4500
Cell viability ([4]; replicate 2): 5400
Cell viability ([4]; replicate 3): 4100
cell viability effect of peptides ([4]; replicate 1): 12600
cell viability effect of peptides ([4]; replicate 2): 12500
cell viability effect of peptides ([4]; replicate 3): 13000
Effect on A53T a-syn oligomers [5]: significant reduction in A53T a-syn oligomers
A53T a-syn oligomers as measured by luciferase activity ([5]; replicate 1): 251502
A53T a-syn oligomers as measured by luciferase activity ([5]; replicate 2): 281836
A53T a-syn oligomers as measured by luciferase activity ([5]; replicate 3): 251716

FEELEAQLARLR [TagRFP::peptide]
Effect on PDE neurite shortening ([6]; A30P human a-syn): partially rescued
Proportion displaying Long PDE neurite length ([6]; a-Syn (A30P), Marker +, adult): 36.95%
Proportion displaying Medium PDE neurite length ([6]; a-Syn (A30P), Marker +, adult): 48.43%
Proportion displaying Short PDE neurite length ([6]; a-Syn (A30P), Marker +, adult): 14.62%

CO/C1=C\C(C)=C\[C@@H](C)[C@@H](O)[C@@H](C)C/C(C)=C/C=C/[C@H](OC)[C@@H]([C@@H](C)[C@@H](O)[C@H](C)[C@@]2(O)C[C@@H](O)[C@H](C)[C@@H](C(C)C)O2)OC1=O [bafilomycin A1]
Effect on autophagic flux [7]: increases LC3 reporter levels and luminescent signal

CHMP2B 1-199: truncated version of CHMP2B (amino acids 1–199), in which the MIM is removed
Effect on cell survival/viability ([2]; A53T a-syn cells): rescues toxicity
Effect on A53T a-syn protein level [8]: reduction in a-syn

CO[C@H]1C[C@@H]2CC[C@@H](C)[C@@](O)(O2)C(=O)C(=O)N2CCCC[C@H]2C(=O)O[C@H]([C@H](C)C[C@@H]2CC[C@@H](O)[C@H](OC)C2)CC(=O)[C@H](C)/C=C(\C)[C@@H](O)[C@@H](OC)C(=O)[C@H](C)C[C@H](C)/C=C/C=C/C=C/1C [rapamycin]
Effect on autophagic flux [7]: decreased LC3 reporter levels and luminescent signal

IERQLKA [PDpep1.1]
Oligomers % ([1]; column 1): 106.713%
Oligomers % ([1]; column 2): 81.3253%
Oligomers % ([1]; column 3): 66.2651%
Oligomers % ([1]; column 4): 77.4527%
Oligomers % ([1]; column 5): 64.5439%
Effect on WT a-syn oligomers [1]: significant reduction in a-syn oligomers
cell viability effect of peptides ([2]; replicate 1): 13600
cell viability effect of peptides ([2]; replicate 2): 13400
cell viability effect of peptides ([2]; replicate 3): 12400
Cell viability ([2]; replicate 1): 6400
Cell viability ([2]; replicate 2): 6200
Cell viability ([2]; replicate 3): 6100
Effect of MIM motif peptides on cell viability in A53T a-syn expressing cells ([2]; replicate 1): 6738
Effect of MIM motif peptides on cell viability in A53T a-syn expressing cells ([2]; replicate 2): 6300
Effect of MIM motif peptides on cell viability in A53T a-syn expressing cells ([2]; replicate 3): 6152
Cell viability ([3]; replicate 1): 4800
Cell viability ([3]; replicate 2): 4300
Cell viability ([3]; replicate 3): 4100
cell viability effect of peptides ([3]; replicate 1): 13800
cell viability effect of peptides ([3]; replicate 2): 13400
cell viability effect of peptides ([3]; replicate 3): 12900
Cell viability ([4]; replicate 1): 3550
Cell viability ([4]; replicate 2): 3700
Cell viability ([4]; replicate 3): 3800
cell viability effect of peptides ([4]; replicate 1): 12600
cell viability effect of peptides ([4]; replicate 2): 12000
cell viability effect of peptides ([4]; replicate 3): 12700
Effect on A53T a-syn oligomers [5]: significant reduction in A53T a-syn oligomers
A53T a-syn oligomers as measured by luciferase activity ([5]; replicate 1): 261554
A53T a-syn oligomers as measured by luciferase activity ([5]; replicate 2): 321472
A53T a-syn oligomers as measured by luciferase activity ([5]; replicate 3): 271592

B1: FITC-labeled a-syn peptide, amino acids 103-114 (NEEGAPQEGILE) (peptide)
peptide: {FITC}-NEEGAPQEGILE
notes: α-synuclein amino acids 103-114; also called a-syn peptide fragment; source: synthetic peptide (LifeTein)
Kd [9]: 0.64 µM
